Reference: US9290788B2, “Device for determining or studying the state of stimulation of the natural defences of plants or portions of plants” (Institut National De La Recherche Agronomique, priority 2010, dated 2016)
“And” between values parts separate entries of the source, which are not always exact repeats. Equal values may be shown once.

Legend:
[1] = tested on: 28 target genes (defense genes) in apple tree leaves; assay: Test 1: relative expression of the 28 defense genes (qPCR, ΔΔCt) in apple tree seedling leaves subjected to NDS treatments and abiotic stresses; format: in vivo, apple tree seedlings (Golden Delicious); conditions: for effect on the modulation of target gene expression (in words): Test 1; for Relative expression of PR-2 / Relative expression of PR-4 / Relative expression of PR-8 / Relative expression of ANS / Relative expression of PAL / Relative expression of PR-15 / Relative expression of PR-1 / Relative expression of PR-5 / Relative expression of PR-14: vs water control
[2] = tested on: 28 target genes (defense genes) in apple tree leaves; assay: Test 2: analysis of defenses, expression of the 28 genes (qPCR) in apple tree seedlings sprayed with 10 NDS candidates, with or without hydrogen peroxide; format: in vivo, apple tree seedlings (Golden Delicious)
[3] = tested on: fire blight (Erwinia amylovora); conditions: Test 1, controlled conditions
[4] = abiotic stress, J2, relative to water control
[5] = abiotic stress, J3, relative to water control
[6] = +H2O2, J2, relative to water control
[7] = +H2O2, J3, relative to water control
[8] = +H2O2 (sprayed 24 hours after treatment), J2
[9] = +H2O2 (sprayed 24 hours after treatment), J3
[10] = −H2O2, J2, relative to water control
[11] = −H2O2, J3, relative to water control
[12] = abiotic stress, J1, relative to water control

## OO [H2O2, hydrogen peroxide]
[1]
  effect on the modulation of target gene expression (in words): only slightly modulate the target gene expressions
[1]; [4]
  Relative expression APOX (log base 2): 0.41 and 0.38
  Relative expression DFR (log base 2): 0.50 and 0.80
  Relative expression EIN3 (log base 2): 1.44 and 1.53
  Relative expression POX (log base 2): 1.07 and 1.06
  Relative expression WRKY (log base 2): −0.04 and −0.12
[1]; [5]
  Relative expression CAD (log base 2): −0.72 and −0.54
  Relative expression GST (log base 2): 0.33 and 0.40
  Relative expression LOX2 (log base 2): 0.16 and 0.42
[1]; abiotic stress treatment, J2
  Relative expression of PR-2: 4.75 log2 and 3.92 log2
  Relative expression of PR-4: 2.53 log2 and 4.27 log2
  Relative expression of PR-8: 0.83 log2 and 0.79 log2
[1]; abiotic stress treatment, J3
  Relative expression of PR-2: 2.36 log2 and 3.38 log2
[2]; J2 + H2O2
  ANS expression: −0.63
  CHS expression: −0.80
  DFR expression: −0.65
  FPPS expression: 0.06
  HMGR expression: 1.05
  PAL expression: −0.56
  PPO expression: 1.20
  PR1 expression: 0.85
  PR2 expression: 3.69
  PR4 expression: 3.89
  PR5 expression: 0.91
  PR8 expression: 2.12
  PR14 expression: 1.32
  PR15 expression: −0.26
[2]; J3 + H2O2
  ANS expression: −0.49
  CHS expression: −0.75
  DFR expression: −0.36
  FPPS expression: 0.08
  HMGR expression: 0.14
  PAL expression: −0.57
  PPO expression: 0.71
  PR1 expression: 1.41
  PR2 expression: 4.05
  PR4 expression: 2.59
  PR5 expression: 1.73
  PR8 expression: 1.73
  PR14 expression: 3.29
  PR15 expression: 1.57

## OO [H202]
[2]; J2 + H2O2
  ACCO expression: 0.60
  APOX expression: −0.37
  CAD expression: −0.32
  CSL expression: 2.28
  CalS expression: −0.31
  EDS1 expression: 1.12
  EIN3 expression: −0.20
  FAR expression: 1.07
  GST expression: 0.21
  JAR expression: −0.62
  LOX2 expression: −0.39
  PECT expression: 0.01
  POX expression: 2.12
  WRKY expression: 1.42
[2]; J3 + H2O2
  ACCO expression: 0.37
  APOX expression: 0.36
  CAD expression: 0.30
  CSL expression: 1.32
  CalS expression: 0.04
  EDS1 expression: 1.44
  EIN3 expression: 0.33
  FAR expression: 0.12
  GST expression: 0.30
  JAR expression: 0.09
  LOX2 expression: −0.03
  PECT expression: 1.53
  POX expression: 1.61
  WRKY expression: 1.27

## CC(N)CC(=O)O (racemic) [Baba, DL-β-amino-n-butyric acid]
[1]; [6]
  Relative expression APOX (log base 2): 1.49 and 1.76
  Relative expression JAR (log base 2): −0.44 and −0.16
  Relative expression POX (log base 2): 2.20 and 2.28
[1]; [7]
  Relative expression CAD (log base 2): −0.15 and −0.29
  Relative expression CalS (log base 2): 2.10 and 1.88
[1]; H2O2 sprayed 24 hours after treatment
  direct stimulator versus potentiator: gene expression after additional H2O2 treatment: triggers the expression of some genes (POX, Pect, for example)
[1]
  effect on the modulation of target gene expression (in words): little effect on the modulations of genes
[1]; [8]
  Relative expression of ANS: 1.41 log2 and 2.12 log2
  Relative expression of PAL: 0.29 log2 and 0.55 log2
  Relative expression of PR-15: 0.84 log2 and 0.71 log2
[1]; [9]
  Relative expression of PR-1: 2.71 log2 and 1.77 log2
  Relative expression of PR-5: 1.91 log2 and 1.34 log2
  Relative expression of PR-15: 1.46 log2 and 2.06 log2
[1]; −H2O2, J2
  Relative expression of ANS: 1.28 log2 and 1.53 log2
  Relative expression of PAL: 0.42 log2 and 0.27 log2
[1]; −H2O2, J3
  Relative expression of PAL: 0.20 log2 and 0.29 log2
[1]; [10]
  Relative expression CHS (log base 2): 0.27 and 0.29
  Relative expression DFR (log base 2): 0.64 and 0.93
  Relative expression GST (log base 2): −0.05 and −0.34
[1]; [11]
  Relative expression CHS (log base 2): 0.19 and 0.31
  Relative expression FPPS (log base 2): 0.46 and 0.56
[3]
  protection against fire blight: no protective effect against fire blight

## C[n+]1ccc(-c2cc[n+](C)cc2)cc1 [Paraquat, paraquat dichloride x-hydrate]
[1]
  effect on the modulation of target gene expression (in words): strongly activates some genes
[1]; [12]
  Relative expression ACCO (log base 2): −1.33
  Relative expression APOX (log base 2): 0.00
  Relative expression CAD (log base 2): 0.04
  Relative expression CHS (log base 2): −1.56
  Relative expression CSL (log base 2): 2.29
  Relative expression CalS (log base 2): 0.00
  Relative expression DFR (log base 2): −0.74
  Relative expression EDS1 (log base 2): 0.83
  Relative expression EIN3 (log base 2): 0.00
  Relative expression FPPS (log base 2): 1.02
  Relative expression Far (log base 2): 2.76
  Relative expression GST (log base 2): 1.99
  Relative expression HMGR (log base 2): 2.85
  Relative expression JAR (log base 2): 0.00
  Relative expression LOX2 (log base 2): −0.58
  Relative expression POX (log base 2): 0.00
  Relative expression PPO (log base 2): 0.67
  Relative expression Pect (log base 2): 0.00
  Relative expression WRKY (log base 2): 4.01
[1]; [4]
  Relative expression ACCO (log base 2): 0.02
  Relative expression APOX (log base 2): 2.01
  Relative expression CAD (log base 2): 0.27
  Relative expression CHS (log base 2): −1.49
  Relative expression CSL (log base 2): 4.42
  Relative expression CalS (log base 2): 0.42
  Relative expression DFR (log base 2): −1.14
  Relative expression EDS1 (log base 2): 2.89
  Relative expression EIN3 (log base 2): 0.21
  Relative expression FPPS (log base 2): 0.15
  Relative expression Far (log base 2): 2.30
  Relative expression GST (log base 2): 1.83
  Relative expression HMGR (log base 2): 1.20
  Relative expression JAR (log base 2): −0.81
  Relative expression LOX2 (log base 2): −0.54
  Relative expression POX (log base 2): 4.26
  Relative expression PPO (log base 2): 6.27
  Relative expression Pect (log base 2): 2.17
  Relative expression WRKY (log base 2): 6.37
[1]; [5]
  Relative expression ACCO (log base 2): 0.41
  Relative expression APOX (log base 2): 1.48
  Relative expression CAD (log base 2): −0.51
  Relative expression CHS (log base 2): −2.04
  Relative expression CSL (log base 2): 5.43
  Relative expression CalS (log base 2): 0.01
  Relative expression DFR (log base 2): −2.09
  Relative expression EDS1 (log base 2): 2.28
  Relative expression EIN3 (log base 2): −0.11
  Relative expression FPPS (log base 2): −1.83
  Relative expression Far (log base 2): 1.85
  Relative expression GST (log base 2): 0.80
  Relative expression HMGR (log base 2): −0.24
  Relative expression JAR (log base 2): −2.46
  Relative expression LOX2 (log base 2): −2.37
  Relative expression POX (log base 2): −0.53
  Relative expression PPO (log base 2): 4.63
  Relative expression Pect (log base 2): −2.82
  Relative expression WRKY (log base 2): 2.76
[1]; abiotic stress treatment, J1
  Relative expression of ANS: 0.00 log2
  Relative expression of PAL: 1.99 log2
  Relative expression of PR-1: 0.55 log2
  Relative expression of PR-2: 4.09 log2
  Relative expression of PR-4: 7.10 log2
  Relative expression of PR-5: 0.00 log2
  Relative expression of PR-8: 0.00 log2
  Relative expression of PR-14: 2.61 log2
  Relative expression of PR-15: 0.00 log2
[1]; abiotic stress treatment, J2
  Relative expression of ANS: −2.09 log2
  Relative expression of PAL: 2.56 log2
  Relative expression of PR-1: 3.00 log2
  Relative expression of PR-2: 5.88 log2
  Relative expression of PR-4: 6.93 log2
  Relative expression of PR-5: −3.05 log2
  Relative expression of PR-8: 5.12 log2
  Relative expression of PR-14: 6.04 log2
  Relative expression of PR-15: 4.77 log2
[1]; abiotic stress treatment, J3
  Relative expression of ANS: −0.78 log2
  Relative expression of PAL: 0.66 log2
  Relative expression of PR-1: 0.54 log2
  Relative expression of PR-2: 2.53 log2
  Relative expression of PR-4: 6.63 log2
  Relative expression of PR-5: −8.56 log2
  Relative expression of PR-8: 5.36 log2
  Relative expression of PR-14: 1.28 log2
  Relative expression of PR-15: −0.34 log2
